Source: patent US8962677B2, “Methods of restoring cognitive ability using non-peptidic compounds” (Acumen Pharmaceuticals, Inc., priority 2007, dated 2015)
Values belong to the compound of their own block, whether it stands above or below them.

How the values were obtained:
Aβ1-42 = Aβ1-42 (Homo sapiens, UniProt P05067); assay: FRET assay of Aβ1-42 oligomer (ADDL) assembly; type: biochemical; conditions: for IC50: FRET assay of Example 1, formation of neurotoxic ADDLs
Source text: Fluorescence (or Förster) Resonance Energy Transfer (FRET) is a distance-dependent, non-radiative transfer of energy in which the de-excitation of one fluorophore (donor) is coupled to excitation of another fluorophore (acceptor). FRET occurs if (1) the quantum of energy emitted by a donor fluorophore corresponds to an acceptor fluorophore's excitation energy, (2) the orientations of donor and acceptor transition dipoles are nearly parallel and (3) the donor fluorescent emission spectrum overlaps the acceptor absorption spectrum.
In this assay, Aβ1-42 oligomer formation is monitored by FRET using N-terminal conjugates of fluorescein-Aβ1-42 as both the donor and acceptor fluorophore (fluorescein-fluorescein Ro˜45 Å). […] Inhibition of Aβ1-42 assembly is observed as the absence or attenuation of fluorescein quenching.
FRET and FP assays are performed in 384-well Corning Non-Binding Surface, black, opaque microtiter plates, and the assay buffer consists of 50 mM MOPS-Tris (pH 8.0) with 100 mM MgCl2. The assay volume, containing 0.2 μM FITC-Aβ(1-42) and 0.8 μM Aβ(1-42), is 50 μl and the temperature is 37° C. ADDL assembly is monitored on a Tecan GENios Pro plate reader, exciting at a wavelength of 485 nm and detecting emission at a wavelength of 515 nm. Kinetic traces are collected by recording fluorescence intensity and polarization readings every five minutes over about three to about a six-hour time course. […] Positive control reactions contain all buffer components in the absence of added small molecule or antibody reagents. To test for ADDL assembly inhibition, the non-peptidic compound was incubated with the peptide mixture at six concentrations from about 30 μM decreasing to about 0.05 μM.
Test Compound A appears as compound 7 in Table 1.

Aβ1-42 ADDLs = molecular target: T1, Aβ1-42 ADDLs (Homo sapiens, UniProt P05067); assay: Alternating Lever Cyclic Ratio (ALCR) rat model; type: in vivo; conditions: for Approach Errors Mean / Perseveration Errors Mean: base line error rate equalized to 1.00; for error rates versus baseline: given alone
T1 construct: Synthetic Aβ1-42 powder was dissolved in 1,1,1,3,3,3 hexafluorisopropanol (HFIP); host or cells: chemically synthesised peptide
T1 sequence (P05067 672-713 limits assumed): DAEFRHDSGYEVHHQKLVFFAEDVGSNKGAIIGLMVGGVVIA
Procedure: Preparations of Aβ1-42 ADDLs and a potential therapeutic compounds under the Alternating Lever Cyclic Ratio (ALCR) rat model of AD were tested. This highly sensitive model has been able to detect cognitive deficits due to direct injection of cell-derived Aβ oligomers into rat brain. In this study, a direct injection of ADDLs made from synthetic Aβ1-42 and a putative therapeutic compound under the ALCR procedure were tested.
The ALCR test has proven to be much more sensitive than previously published methods for measuring drug effects on cognitive function. In this task, rats must learn a complex sequence of lever-pressing requirements in order to earn food reinforcement in a two-lever experimental chamber. Subjects must alternate between two levers by switching to the other lever after pressing the first lever enough to get food reward. The exact number of presses required for each food reward changes, first increasing from 2 responses per food pellet up to 56 presses per food pellet, then decreasing back to 2 responses per pellet. Intermediate values were based on the quadratic function, x^2−x. One cycle was an entire ascending and descending sequence of these lever press requirements (e.g., 2, 6, 12, 20, 30, 42, 56, 56, 42, 30, 20, 12, 6, and 2 presses per food reward). Six such full cycles were presented during each daily session.
Synthetic Aβ1-42 powder was dissolved in 1,1,1,3,3,3 hexafluorisopropanol (HFIP) to afford a solution of Aβ1-42 in HFIP of about 1 mM and allowed to incubate at ambient temperature for about 1 h. The resulting solution was chilled on ice for about 5-10 min, then aliquoted into eppendorf tubes to provide about 50 μl of solution per tube. The tubes were then placed in a chemical fume hood and allowed to stand overnight to allow the HFIP to evaporate under a slow stream of nitrogen. To removed final traces of HFIP, the tubes were subjected to two SpeedVac cycles of 15 min at room temperature and about 15 to 25 in Hg of vacuum. The resulting films of monomerized Aβ1-42 peptide were stored over desiccant at −80° C. until used.
A tube of monomerized Aβ1-42 peptide was warmed to room temperature and the Aβ1-42 peptide was dissolved in anhydrous DMSO to afford a peptide stock DMSO solution containing about 10 μM to about 100 μM Aβ1-42 peptide in DMSO.
2 μl of a 20 mM stock solution of test compound in anhydrous DMSO is added to 998 μl of neural basal media (phenol red free, Gibco 12348-017) to give a compound neural basal media solution containing 40 μM of test compound in neural basal media.
For the Aβ1-42 peptide only treatment, peptide stock DMSO solution is added to 37° C. neural basal to obtain the requisite Aβ1-42 peptide monomer concentration, provided that the maximum concentration of DMSO is 1% or less, and the tube is vortexed for 30 to 60 seconds, spun down briefly in a microfuge and incubated at 37° C. for 15 min prior to the start of injections.
For the Aβ1-42 peptide plus test compound treatment, peptide stock DMSO solution is added to 37° C. compound neural basal media solution to obtain the requisite Aβ1-42 peptide monomer concentration, provided that the maximum concentration of DMSO is 1% or less, and the tube is vortexed for 30 to 36 seconds, spun down briefly in a microfuge and incubated at 37° C. for 15 min prior to the start of injections.
For control injections, compound neural basal media solution is incubated at 37° C. for 15 min prior to the start of injections.
Rats: Rats were trained under ALCR until their error rates were stable. Once the rats were placed upon the final ALCR procedure, training sessions were conducted 7 days each week until the end of the study.
Surgery: All rats received a single 28 ga cannula, which was permanently affixed to the skull, and aimed at the lateral ventricle. Half the rats received cannula in the right ventricle and half received cannula in the left ventricle. Rats were allowed 5 days to recover from surgery before training resumed. […]

[1] = cited from earlier work
[2] = cited from earlier work; remark: listed apart in the source
[3] = compound combined with Aβ1-42 ADDLs
[4] = injectate alone, 20 μl via ventricular cannula, tested about 3 hours after injection

Sequence of Aβ1-42 (P05067 672-713 limits assumed): as above

Compound: CCOC(=O)c1c(NC(=O)C(=O)N/N=C/c2ccccc2O)sc2c1CCC(C)C2 (centres unmarked) [Compound 7, 2-{[1-(2-Hydroxyphenyl)-meth-(E)-ylidene-hydrazinooxalyl]-amino}-6-methyl-4,5,6,7-tetrahydro-benzo[b]thiophene-3-carboxylic acid ethyl ester]
inhibition of Aβ1-42 oligomer assembly (Aβ1-42; 1 mM Aβ1-42 total monomer, 100 mM MgCl2, compound 0.05 to 3 mM (so in the source), FIG. 1): dose dependent inhibition of Aβ1-42 oligomer assembly

Compound: Cn1nccc1C(=O)C/C(=N/NC(=O)c1ccccc1O)C(F)(F)F [Compound 1, 2-Hydroxy-benzoic acid [3-oxo-3-(1-methyl-1H-pyrazol-5-yl)-1-trifluoromethyl-prop-(Z)-ylidene]-hydrazide]
IC50 (Aβ1-42): 17.7 µM

Compound: COc1ccc(NC(=O)C(=O)N2N=C(CCC(C)C)CC2(O)C(F)(F)F)cc1 (centres unmarked) [Compound 21, 2-(5-hydroxy-3-isopentyl-5-(trifluoromethyl)-4,5-dihydro-1H-pyrazol-1-yl)-N-(4-methoxyphenyl)-2-oxoacetamide]
IC50 (Aβ1-42): 6.4 µM

Approach Errors Mean (Aβ1-42 ADDLs; [3]): 1.00
Perseveration Errors Mean (Aβ1-42 ADDLs; [3]): 0.92
error rates versus baseline (Aβ1-42 ADDLs): did not increase error rates
Approach Errors Mean (Aβ1-42 ADDLs; [4]): 0.96
Perseveration Errors Mean (Aβ1-42 ADDLs; [4]): 0.95
Compound: O=C(N/N=C/c1c(O)ccc2ccccc12)c1ccccc1O [Compound 24, (E)-2-hydroxy-N′-((2-hydroxynaphthalen-1-yl)methylene)benzohydrazide]
effect on ADDL-induced increase in Perseveration Errors (Aβ1-42 ADDLs; combined with the requisite concentration of Aβ1-42 ADDLs): eliminated the increase in Perseveration Errors

Compound: Aβ1-42 ADDLs: ADDLs made from synthetic Aβ1-42; soluble, oligomeric, globular, non-fibrillar, neurotoxic Aβ1-42 peptides [reference compound]
error rates versus baseline (Aβ1-42 ADDLs): significantly increased Perseveration Error rate
Approach Errors Mean (Aβ1-42 ADDLs; [4]): 1.02
Perseveration Errors Mean (Aβ1-42 ADDLs; [4]): 1.33

Compound: Oc1c(I)cc(Cl)c2cccnc12 [Clioquinol]
patients' cognitive ability ([1]; compared to untreated patients): stabilize the patients' cognitive ability
Aβ1-42 levels in plasma ([1]; patients' plasma): lower Aβ1-42 levels

Compound: NCCCS(=O)(=O)O [Alzhemed, 3-amino-1-propanesulfonic acid]
cognitive decline ([2]; 20 month open-label extension of Phase II trial, patients with mild AD): slowed cognitive decline in some patients
efficacy ([2]; blinded phase of the Phase II study): no efficacy was observed
blocking of Aβ1-42 monomer assembly into Aβ oligomers (Aβ1-42; standard FRET assay conditions of Example 1, FIG. 2): inability of the compound Alzhemed to inhibit Aβ1-42 monomer assembly into Aβ oligomers
